{"source": "patent US12583841B2", "about": "“Tetrahydropyrrolocyclic compound and application thereof” (Breakthrough Pharmaceuticals Inc., priority 2021, dated 2026)", "key": {"SD rats": {"tested_on": "SD rats", "assay": "Effect on sleep in SD rats by electroencephalogram/electromyography telemetry", "format": "in vivo", "conditions": "SD rat EEG, Mean±SEM; for Sleep latency: blank vehicle 32 ± 3.1; for NREM sleep time within 7 h after administration: blank vehicle 102 ± 18; for Total awake time within 7 h after administration: blank vehicle 303 ± 20", "procedure": "Test purpose: to evaluate the effect of test substance on sleep in SD rats by electroencephalogram/electromyography telemetry (EEG).\nTest scheme: 36 male SD rats aged 5-6 weeks needed an adaptation period of 5-15 days after arriving at the facility, during which the experimental animals were placed in an alternating light and dark environment for 12 h for adaptation (light on: 19:00; light off: 07:00) to adjust the rhythm time, and the health of the animals was monitored every day. Animals needed to be surgically implanted with electroencephalogram electrode and electromyography electrode for later telemetry data collection. On the day of the operation experiment, the animals were anesthetized with Zoletil (i.p., 20 mg/kg) combined with xylazine (i.p., 8 mg/kg). After anesthesia, the animals were fixed by brain stereotaxic apparatus. After the head has hair clipped and was disinfected, the skin of the head was cut, and the four corners were clamped with hemostats to fully expose the skull. The periosteum was peeled off and wiped with dry absorbent cotton until the surface was clean. A hole was drilled according to the type of implanter, and an electrode was implanted and in contact with the dura mater. The electrode was fixed on the skull with dental cement. At the same time, the cement dripping on the tissue and skin was cleaned up. The 2 electromyography electrodes were respectively inserted into the neck muscles in parallel, and the two ends were fixed with sutures to prevent their ends from touching each other. The implanter was then placed under the skin, and the surgical wound was sutured and sterilized. After the operation, the rats were carefully placed in a clean recovery cage, lying on their sides to ensure a smooth airway. The rats were raised in a single cage and placed in a shielded recovery room, in which the light and dark automatically alternated for 12 h (light on: 19:00, light off: 07:00), the temperature was 20-26° C., and the relative humidity was 40-70%. After the operation, the animals were given nursing care for 3 days. The surgical incision was treated with cephradine powder locally, gentamicin at 4-8 mg/kg was subcutaneously administered, and meloxicam at 0.1 mL/rat was injected subcutaneously for 3 consecutive days. The experiment was carried out after 7-10 days of recovery and the animals were randomly divided into groups according to their weight the day before the experiment.\nOn the day of the experiment, the basic electroencephalogram and electromyography were recorded first, and then the administration began. During and after the administration, the electroencephalogram and electromyography were recorded continuously until 24 h after the administration. Raw data were collected by DSI system Ponemah software and analyzed by NeuroScore software. The experimental data were represented by the mean±standard error (Mean±SEM), and statistical analysis was performed using the one-way variance method. Compared with the blank vehicle group, P<0.05 indicated a significant difference, and represented as *; P<0.01 indicated a very significant difference, and represented as **; P<0.001 indicated an extremely significant difference, and represented as ***."}, "OX1R": {"target": "T1, OX1R (Homo sapiens, UniProt O43613)", "T1 construct": "expressed in transfected cells", "T1 sequence (O43613 1-425)": "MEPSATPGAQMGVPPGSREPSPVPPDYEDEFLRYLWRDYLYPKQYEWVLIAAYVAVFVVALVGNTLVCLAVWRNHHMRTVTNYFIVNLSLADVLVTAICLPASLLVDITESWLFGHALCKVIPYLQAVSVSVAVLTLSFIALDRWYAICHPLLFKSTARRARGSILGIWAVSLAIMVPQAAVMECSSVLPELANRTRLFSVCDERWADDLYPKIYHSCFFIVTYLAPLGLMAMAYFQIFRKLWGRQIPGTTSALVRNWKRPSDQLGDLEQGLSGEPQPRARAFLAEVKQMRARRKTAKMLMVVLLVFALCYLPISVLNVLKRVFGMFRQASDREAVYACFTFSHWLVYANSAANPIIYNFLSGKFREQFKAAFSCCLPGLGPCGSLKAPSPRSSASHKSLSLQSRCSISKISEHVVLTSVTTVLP", "assay": "FLIPR intracellular calcium antagonism test, HEK293-OX1R cells", "format": "cell-based", "conditions": "Orexin A at EC70, read-out: hOXIR IC50", "procedure": "The change of intracellular calcium signal was detected by FLIPR, and the antagonism of the compounds on OX1R and OX2R receptors was evaluated by using IC50 value of the compounds as an index.\n• Cell lines: Transfected HEK293-OX1R and HEK293-OX2R stable cell lines • HEK293-OX1R cell culture medium (DMEM, Invitrogen #11960-044, 10% serum Gibco #10099141, L-Glutamine 1×, Gibco #25030, sodium pyruvate 1×, Gibco #11360, Geneticin 300 μg/mL, Gibco #10131) • HEK293-OX2R cell culture medium (DMEM, Invitrogen #11960-044, 10% serum Gibco #10099141, L-Glutamine 1×, Gibco #25030, sodium pyruvate 1×, Gibco #11360, Geneticin 300 μg/mL, Gibco #10131, Blasticin 2 μg/mL, Invitrogen #R21001)\nExperimental Steps and Methods: • a) Cell seeding (HEK293-OX1R and HEK293-OX2R cells) • 1) preheating the culture medium, trypsin and DPBS under water bath at 37° C.; pipetting and removing the medium of cell culture and washing same with 10 mL of DPBS; • 2) adding the preheated trypsin to a culture flask, rotating the culture flask so that the trypsin evenly covered the culture flask, and putting the culture flask in a 37° C., 5% CO2 incubator for digestion for 1-2 min; • 3) suspending the cells with 10-15 mL of medium for each T150 and centrifuging at 800 rpm for 5 min; resuspending the cells with 10 mL of medium, pipetting 1 mL of the cell suspension and counting with Vi-cell; • 4) diluting OX1R cells with medium to 5×10^5 cells/mL, and diluting OX2R cells with medium to 4×10^5 cells/mL, and adding the diluted cells to 384 plate (Greiner.781946) with a multi-channel pipette (50 μL/well, 25000 cells/well for OX1R cells, 20000 cells/well for OX2R cells); placing the cell plate in a 37° C., 5% CO2 incubator overnight. • b) Compound loading: • 1) diluting the compound to 20 mM with DMSO, 3-fold dilution, 8 gradients, duplicate wells, and adding same to a compound plate with an Echo liquid handler; then adding 20 μL of buffer to maintain the final concentration of DMSO of 0.1%. • c) FLIPR experiment: • 1) washing off the cell culture medium in the 384 plate with a vacuum pump, adding […] Direct fluorescent dye, incubating in 37° C., 5% CO2 incubator for 1 h, and balancing at room temperature for another 10 min. • 2) EC50 test: manually diluting Orexin A on ice, 3-fold dilution, 8 gradients, duplicate wells; preparing a DMSO plate and keep the DMSO concentration to be 0.5%; putting the cell plate, OrexinA plate, and DMSO plate in FLIPR respectively, and reading the fluorescence value. • 3) calculating the EC70 value based on the EC50 value of Orexin A; preparing a 5×EC70 solution, adding same to 384 compound plate with a multi-channel pipette, and storing on ice; • 4) putting the compound plate, 5×EC70 plate, cell plate, and FLIPR tip in sequence in FLIPR, running the program, and reading the fluorescence value. • d) Data analyzing: using Prism5.0 to analyze the data, and calculating the IC50 value of the compound."}}, "note": "Marks after values point to notes of the source that are not given here.", "data": [{"compound": "COc1ccc(-n2nccn2)c(C(=O)N2C(c3nc4ccc(OC)cc4[nH]3)CC3CC32)c1", "note": "(stereo not shown) [Compound 8]", "values": [{"measurement": "Sleep latency", "setting": "SD rats; 5 mg/kg", "value": "27 ± 8.1", "unit": "min"}, {"measurement": "NREM sleep time within 7 h after administration", "setting": "SD rats; 5 mg/kg", "value": "129 ± 17", "unit": "min"}, {"measurement": "Total awake time within 7 h after administration", "setting": "SD rats; 5 mg/kg", "value": "274 ± 19", "unit": "min"}, {"measurement": "Sleep latency", "setting": "SD rats; 10 mg/kg", "value": "15 ± 2.9** min"}, {"measurement": "NREM sleep time within 7 h after administration", "setting": "SD rats; 10 mg/kg", "value": "144 ± 16", "unit": "min"}, {"measurement": "Total awake time within 7 h after administration", "setting": "SD rats; 10 mg/kg", "value": "250 ± 21", "unit": "min"}, {"measurement": "Sleep latency", "setting": "SD rats; 30 mg/kg", "value": "7 ± 1.3*** min"}, {"measurement": "NREM sleep time within 7 h after administration", "setting": "SD rats; 30 mg/kg", "value": "171 ± 11** min"}, {"measurement": "Total awake time within 7 h after administration", "setting": "SD rats; 30 mg/kg", "value": "228 ± 12* min"}, {"measurement": "IC50", "setting": "OX1R", "value": 1.79, "unit": "µM"}]}]}
